Experimental data as given in patent US20250313555A1, “2-SUBSTITUTED THIAZOLE AND BENZOTHIAZOLE COMPOSITIONS AND METHODS AS DUX4 INHIBITORS” (ALTAY THERAPEUTICS, INC., priority 2022, published 2025).

Tests used:
Format in all cases: cell-based
[1] = Cell cytotoxicity 50 assay (CC50), MB200 cells, cell titer glo; details: human
Experimental: Cell Cytotoxicity 50 Assay Protocol (CC50) MB200 cells were grown until 80% confluent in F10 media supplemented with rhFGF basic (10 ng/ml), 15% fetal bovine serum, 1% penicillin streptomycin, 1% amphotericin B, and 1 μM dexamethasone. Adherent MB200 cells growing on 10 cm plate were then trypsinized with 1 ml of trypsin. Once the cells detached from the plate, F10 media (10 mL) was added, and the cells were strained through a 70 μm cell strainer. The cells were counted using a mixture of 10 μL cell suspension with 10 μL of trypan blue. Once the total number of cells were counted, a dilution of 200 k/mL was prepared, and the cells were seeded with 10 k cells/well in a 96-well plate in triplicate, making sure to avoid seeding cells in the edges of the plate to avoid edge effects. Using a multichannel pipet, the 200 k/mL cell dilution (50 μL/well) was added into wells B2-B11, C2-C11, and D2-D11 in triplicate. Into a deep well block (DWB), the media for the appropriate cell line (450 μL/well) was added into wells 1-10. Into DWB well 2, 10 mM of drug solution (13.5 μL) was added, followed by an additional volume of the medium (225 μL). The well was pipetted up/down four times. A portion (225 μL) was transferred to well 3, and this process was repeated up to well 10. Using a multichannel pipet, a smaller portion (50 μL/well) was removed from all wells in the DWB and then dispensed on top of the cells in each corresponding row. After adding the drug, the plate was incubated at 37° C. for 72 h. Using a multi-channel pipet, pre-warmed cell titer glo reagent (Promega) (100 μL) was added into every well. After 5 minutes, the total luminescence was measured with a luminometer. CC50 was determined with GraphPad prism template.

[2] = Cell cytotoxicity 50 assay (CC50), HEK cells; details: human
Experimental: Cell Cytotoxicity 50 Assay Protocol (CC50) Into a deep well block (DWB), the media for the appropriate cell line (450 μL/well) was added into wells 1-10. Into DWB well 2, 10 mM of drug solution (13.5 μL) was added, followed by an additional volume of the medium (225 μL). The well was pipetted up/down four times. A portion (225 μL) was transferred to well 3, and this process was repeated up to well 10. Using a multichannel pipet, a smaller portion (50 μL/well) was removed from all wells in the DWB and then dispensed on top of the cells in each corresponding row. After adding the drug, the plate was incubated at 37° C. for 72 h. Using a multi-channel pipet, pre-warmed cell titer glo reagent (Promega) (100 μL) was added into every well. After 5 minutes, the total luminescence was measured with a luminometer. CC50 was determined with GraphPad prism template.

MBD3L2 RNA = experiment: RNA isolation and qPCR to determine MBD3L2 RNA levels in FSHD cells; details: 48 hrs
Experimental: Protocol for RNA Isolation and qPCR to Determine MBD3L2 RNA Levels The protocol describes the process of isolating RNA from cultured cells, converting the RNA to complementary DNA (cDNA), and measuring target gene expression using a quantitative polymerase chain reaction (qPCR). The seed FSHD cells were dispensed into a six-well dish. One day after seeding, the DUX4 inhibitor (11 μM or 3.6 μM/well) was added to the cells. After another 48 hrs, the old media was removed from the cells. The cells were washed with 2 mL of warm phosphate buffered saline (PBS). The PBS was aspirated, and the cells were lysed in each well with 350 μL of RLT buffer+3.5 μL of beta-mercaptoethanol (BME). The lysates were added to fresh, RNAse-free, labeled Eppendorf tubes. The cells were then physically disrupted for […] at level 4 of the bead disrupter to ensure the release of the RNA. The RNA was collected according to standard procedures (i.e., Qiagen kit instructions) as discussed below. The RNA concentrations were standardized to […]. In a PCR tube, RNA (2 μg) in a new Eppendorf tube was diluted with RNase-free water to a 9.5 μL final volume of […] RNA. DNase was used to remove any DNA contamination. A DNase Master Mix was prepared from 1.5 μL/reaction DNase solution (1 unit/μL, Promega), 3 μL/reaction 5× RT buffer (i.e., 250 mM Tris-HCl (pH 8.3), 375 mM KCl, 15 mM MgCl2, and 500 μl 0.1 M DTT; Promega MMLV), and 1 μL/reaction RNase inhibitor solution (RNasin, 40 units/μL, Promega). The DNase Master Mix was added to the standardized RNA samples (5.5 μL/sample). The samples were mixed by agitation and briefly spun down by centrifuge. The samples were heated to 37° C. for 60 min, 80° C. for 5 min, and then cooled to 4° C. The samples were stored on ice until the addition of the next reagents. An RT Reaction Master Mix was prepared from 5 μL/reaction 5× RT buffer, 2 μL/reaction dNTP solution (2.5 mM in each nucleotide), 1 μL/reaction RNase inhibitor solution (RNasin, 40 units/μL, Promega), 1.6 μL/reaction M-MLV reverse transcriptase (200 units/μL, Promega), and 13.4 μL/reaction deionized, RNase-free water. The RT Reaction Master Mix was cooled on ice until use. A 50 μM solution of Random Primer 6 random hexanucleotides (2 μL) was added to each sample. The samples were mixed by agitation and briefly spun down by centrifuge. The samples were heated to 70° C. for 5 min and then cooled to 4° C. The RT Reaction Master Mix (23 μL) was added to each sample. The samples were mixed by agitation and briefly spun down by centrifuge. To convert the RNA to cDNA, the samples were heated to 42° C. for 60 min, 95° C. for 5 min, and then cooled to 4° C. The cDNA product mixture was diluted 5:1 with deionized water (40 μL+160 μL). The samples were run in triplicate, with a methyl-CpG-binding protein 3-like 2 (MBD3L2) target primer and a eukaryotic translation elongation factor 1-alpha (EEF1A) control primer. An qPCR Master Mix was prepared for each primer and stored on ice (4° C.) until use. The qPCR Master Mix included 10 μL/reaction SYBR Green Mix (2×) (ThermoFisher), 1 μL/reaction of the primer mix (i.e., the MBD3L2 PCR Primer mix or the EEF1A Primer mix), and 4 μL/reaction deionized, RNase-free water. To set up the qPCR plate, 15 μL of the appropriate qPCR Master Mix was added to the appropriate wells for each target/primer. After all the targets/primers have been added to the wells, 5 μL of the sample was added to the corresponding wells so that each well is 20 μL total. The plate was covered with a clear sheet. An qPCR run was set up (QuantStudio 5) with the following cycle: […]

| Structure (SMILES) | CC50 at 72 h [1] | CC50 at 72 h [2] | qPCR MBD3L2 Inhib at 11 µM (MBD3L2 RNA) |
| --- | --- | --- | --- |
| CCC(=O)NCCCC(=O)Nc1ccc(-c2nc3ccccc3s2)cc1 [Compound 10] | > 10 µM | > 10 µM | YES |
| O=C(CCCN1CCCC1=O)Nc1ccc(-c2nc3cc(F)ccc3s2)cc1 [Compound 116] | > 10 µM | > 10 µM | YES |
| O=C(Nc1ccc(-c2nc3ccccc3s2)cc1)C1CCC(N2C(=O)CCC2=O)C1 (stereo not drawn) [Compound 94] | > 10 µM | > 10 µM | YES |
| O=C(CCCc1cccnc1)Nc1ccc(-c2nc3ccccc3s2)o1 [Compound 75] | > 10 µM | > 10 µM | YES |
| O=C(CCc1cnco1)Nc1ccc(-c2nc3ccccc3s2)cc1 [Compound 33] | > 10 µM | > 10 µM | YES |
| O=C(CCc1cnc[nH]1)Nc1ccc(-c2nc3ccccc3s2)cc1 [Compound 14] | > 10 µM | > 10 µM | YES |
| CC(=O)NCC(C)CC(=O)Nc1ccc(-c2nc3ccccc3s2)cc1 (stereo not drawn) [Compound 9] | > 10 µM | > 10 µM | YES |
| Cc1ccc2nc(-c3ccc(NC(=O)CC4CCCC4)cc3)sc2c1 [Compound 16] | > 10 µM | > 10 µM | YES |
| CC(=O)NCCCC(=O)Nc1ccc(-c2nc3ccc(C)cc3s2)cc1 [Compound 15] | > 10 µM | > 10 µM | YES |
| O=C(CCCc1cnco1)NC1CCC(c2nc3ccccc3s2)CC1 (stereo not drawn) [Compound 67] | > 10 µM | > 10 µM | YES |
| CC(=O)OCCCC(=O)Nc1ccc(-c2nc3ccc(C)cc3s2)cc1 [Compound 36] | > 10 µM | 1 to 10 µM | YES |
| O=C(CCCc1cccnc1)Nc1ccc(-c2nc3ccccc3s2)nc1 [Compound 156] | > 10 µM | > 10 µM | YES |
| CC(=O)NCCCCC(=O)Nc1ccc(-c2nc3ccccc3s2)o1 [Compound 175] | > 10 µM | > 10 µM | YES |
| CC(C)C(=O)NCCCC(=O)Nc1ccc(-c2nc3ccccc3s2)cc1 [Compound 31] | > 10 µM | > 10 µM | YES |
| CC(=O)NCCCC(=O)Nc1ccc(-c2nc3ccccc3s2)nc1 [Compound 32] | > 10 µM | > 10 µM | YES |
| CC(=O)NCCC(=O)Nc1ccc(-c2nc3cc(C#N)ccc3s2)cc1 [Compound 103] | > 10 µM | > 10 µM | YES |
| O=C(CCc1nnc[nH]1)Nc1ccc(-c2nc3ccccc3s2)cc1 [Compound 39] | > 10 µM | > 10 µM | YES |

| Structure (SMILES) | CC50 at 72 h [1] | CC50 at 72 h [2] | qPCR MBD3L2 Inhib at 11 µM (MBD3L2 RNA) |
| --- | --- | --- | --- |
| CC(=O)NC/C=C/C(=O)Nc1ccc(-c2nc3ccccc3s2)cc1 [Compound 77] | > 10 µM | > 10 µM | YES |
| O=C(CCCc1cccnc1)Nc1coc(-c2nc3ccccc3s2)c1 [Compound 62] | > 10 µM | > 10 µM | YES |
| O=C(CCCc1cnco1)Nc1ccc(-c2nc3ccccc3s2)nc1 [Compound 81] | > 10 µM | > 10 µM | YES |
| Cc1ccc2nc(-c3ccc(NC(=O)C4CCC4)cc3)sc2c1 [Compound 29] | 1 to 10 µM | > 10 µM | YES |
| O=C(CCc1cn[nH]c1)Nc1ccc(-c2nc3ccccc3s2)cc1 [Compound 27] | > 10 µM | > 10 µM | YES |
| CC(=O)NCCC(=O)Nc1ccc(-c2nc3cc(C)ccc3s2)cc1 [Compound 53] | > 10 µM | > 10 µM | YES |
| CC(=O)NCCNC(=O)c1ccc(-c2nc3cc(F)ccc3s2)cc1 [Compound 30] | > 10 µM | > 10 µM | YES |
| O=C(CCCN1C(=O)CCC1=O)Nc1ccc(-c2nc3c(s2)CCCC3)cc1 [Compound 88] | > 10 µM | > 10 µM | YES |
| O=C(CC1CCCC1)Nc1ccc(-c2nc3ccccc3s2)cc1 [Compound 21] | > 10 µM | > 10 µM | YES |
| CC(=O)NCCCC(=O)Nc1ccc(-c2nc(-c3ccccc3)cs2)cc1 [Compound 130] | > 10 µM | > 10 µM | YES |
| O=C(CCCc1cccnc1)Nc1ccc(-c2nc3ccccc3s2)cc1 [Compound 52] | > 10 µM | > 10 µM | YES |
| CC(=O)NCCCC(=O)N(C)c1ccc(-c2nc3cc(F)ccc3s2)cc1 [Compound 145] | > 10 µM | > 10 µM | YES |
| O=C(CCc1cccnc1)Nc1ccc(-c2nc3ccccc3s2)cc1 [Compound 13] | > 10 µM | > 10 µM | YES |
| CC(=O)NCCCC(=O)Nc1ccc(C(C)(C)c2nc3ccccc3s2)cc1 [Compound 87] | > 10 µM | > 10 µM | YES |
| CC(=O)NC(C)CCC(=O)Nc1ccc(-c2nc3ccccc3s2)cc1 (stereo not drawn) [Compound 56] | > 10 µM | > 10 µM | YES |
| O=C(CCCN1CCCC1=O)NCc1ccc(-c2nc3ccccc3s2)cc1 [Compound 109] | > 10 µM | > 10 µM | YES |
